Reference: PubChem BioAssay AID330 (DTP/NCI, 2004)
Where “and” joins values, the source holds several entries; their conditions need not be identical. Equal entries are not always repeated. Inconclusive results and toxic doses are left out.

System: P388 leukemia ip, CD2F1 mice, survival T/C
Assay: NCI In Vivo Anticancer Drug Screen. Data for tumor model P388 Leukemia (intraperitoneal) in CD2F1 (CDF1) mice
Settings: endpoint: median survival time, higher = longer survival
Method in brief: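 Mice carrying the transplanted tumor received test compound or vehicle. Survival was recorded in each group, and the value is the treated-group measurement divided by that of the vehicle-treated control group.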

[1] = dose: 25.0 mg/kg/injection, schedule: Q01DX009 (ip), vehicle: Klucel (hydroxypropylcellulose) (HPC)
[2] = dose: 50.0 mg/kg/injection, schedule: Q01DX009 (ip), vehicle: Klucel (hydroxypropylcellulose) (HPC)
[3] = dose: 100.0 mg/kg/injection, schedule: Q01DX009 (ip), vehicle: Klucel (hydroxypropylcellulose) (HPC)
[4] = dose: 200.0 mg/kg/injection, schedule: Q01DX009 (ip), vehicle: Klucel (hydroxypropylcellulose) (HPC)
[5] = dose: 12.5 mg/kg/injection, schedule: Q01DX009 (ip), vehicle: Klucel (hydroxypropylcellulose) (HPC)
[6] = dose: 60.0 mg/kg/injection, schedule: Q01DX005 (ip), vehicle: saline with Tween-80
[7] = dose: 120.0 mg/kg/injection, schedule: Q01DX005 (ip), vehicle: saline with Tween-80
[8] = dose: 240.0 mg/kg/injection, schedule: Q01DX005 (ip), vehicle: saline with Tween-80
[9] = dose: 50.0 mg/kg/injection, schedule: Q01DX009 (ip), vehicle: saline with Tween-80
[10] = dose: 6.25 mg/kg/injection, schedule: Q01DX009 (ip), vehicle: saline with Tween-80
[11] = dose: 12.5 mg/kg/injection, schedule: Q01DX009 (ip), vehicle: saline with Tween-80
[12] = dose: 25.0 mg/kg/injection, schedule: Q01DX009 (ip), vehicle: saline with Tween-80

CC(C)(O)[C@H]1[C@@H]2OC(=O)[C@H]1[C@]1(O)C[C@H]3OC34C(=O)O[C@H]2[C@@]41C (some centres not stated) (tested in a mixture with another compound)
T/C (dose: 0.25 mg/kg/injection, schedule: Q01DX009 (ip), vehicle: Klucel (hydroxypropylcellulose) (HPC)): 99 % of control
T/C (dose: 0.5 mg/kg/injection, schedule: Q01DX009 (ip), vehicle: Klucel (hydroxypropylcellulose) (HPC)): 113 % of control
T/C (dose: 1.0 mg/kg/injection, schedule: Q01DX009 (ip), vehicle: Klucel (hydroxypropylcellulose) (HPC)): 100 % of control
T/C (dose: 2.0 mg/kg/injection, schedule: Q01DX009 (ip), vehicle: Klucel (hydroxypropylcellulose) (HPC)): 96 % of control
T/C [1]: 99 % of control
T/C [2]: 105 % of control
T/C [3]: 106 % of control
T/C [4]: 96 % of control

Cn1c(N)c(C(=O)/C=C/c2ccccc2)c(=O)n(C)c1=O
T/C [5]: 99 % of control and 124 % of control
T/C [1]: 120 % of control and 93 % of control
T/C [3]: 93 % of control and 113 % of control and 92 % of control
T/C [4]: 116 % of control

CC(=O)OCC1OC(Nc2[nH]c(=O)n(C)c(=O)c2C=O)C(OC(C)=O)C(OC(C)=O)C1OC(C)=O (configuration not stated)
T/C [6]: 105 % of control
T/C [7]: 109 % of control
T/C [8]: 103 % of control

OC1(c2ccccc2C(O)(C(F)(F)F)C(F)(F)F)OC(C(F)(F)F)(C(F)(F)F)c2ccccc21 (configuration not stated)
T/C [5]: 101 % of control
T/C [1]: 99 % of control
T/C [2]: 99 % of control

CN(C)N=Nc1ccc(S(N)(=O)=O)cc1
T/C [1]: 93 % of control
T/C [2]: 114 % of control
T/C [3]: 100 % of control

Nc1ncnc(N2C(=S)OC3C(O)C(CO)OC32)c1N (configuration not stated)
T/C (dose: 25.0 mg/kg/injection, schedule: Q04DX003 (ip), vehicle: water): 100 % of control
T/C (dose: 50.0 mg/kg/injection, schedule: Q04DX003 (ip), vehicle: water): 95 % of control
T/C (dose: 100.0 mg/kg/injection, schedule: Q04DX003 (ip), vehicle: water): 95 % of control
T/C (dose: 200.0 mg/kg/injection, schedule: Q04DX003 (ip), vehicle: water): 113 % of control
T/C (dose: 400.0 mg/kg/injection, schedule: Q04DX003 (ip), vehicle: water): 95 % of control

O=C1CCS(=O)(=O)c2ccccc21
T/C [9]: 100 % of control

O=C(O)CNC(=O)C1(N2C(=O)c3ccccc3C2=O)CCCC1
T/C (dose: 50.0 mg/kg/injection, schedule: Q01DX005 (ip), vehicle: saline with Tween-80): 99 % of control
T/C (dose: 100.0 mg/kg/injection, schedule: Q01DX005 (ip), vehicle: saline with Tween-80): 101 % of control
T/C (dose: 200.0 mg/kg/injection, schedule: Q01DX005 (ip), vehicle: saline with Tween-80): 97 % of control

Cc1cc(C)nc(NCCCCCCCCNc2nc(C)cc(C)n2)n1
T/C (dose: 50.0 mg/kg/injection, schedule: Q01DX005 (ip), vehicle: Klucel (hydroxypropylcellulose) (HPC)): 91 % of control
T/C (dose: 100.0 mg/kg/injection, schedule: Q01DX005 (ip), vehicle: Klucel (hydroxypropylcellulose) (HPC)): 96 % of control
T/C (dose: 200.0 mg/kg/injection, schedule: Q01DX005 (ip), vehicle: Klucel (hydroxypropylcellulose) (HPC)): 90 % of control

Cc1ccc(N=C(SSC(Cl)(Cl)Cl)SSC(Cl)(Cl)Cl)cc1
T/C [10]: 91 % of control
T/C [11]: 99 % of control
T/C [12]: 100 % of control
T/C (dose: 50.0 mg/kg/injection, schedule: Q01DX009 (ip), vehicle: saline + alcohol): 104 % of control
T/C [9]: 101 % of control

CCCCC1(CN(C)C)C(=O)N(C)C(=O)N(C2CCCCC2)C1=O (configuration not stated)
T/C [9]: 100 % of control
T/C (dose: 100.0 mg/kg/injection, schedule: Q01DX009 (ip), vehicle: saline with Tween-80): 102 % of control
T/C (dose: 200.0 mg/kg/injection, schedule: Q01DX009 (ip), vehicle: saline with Tween-80): 99 % of control

CC(C)(C)OC(=O)NNCC(=O)OCc1ccccc1
T/C (dose: 12.5 mg/kg/injection, schedule: Q01DX009 (ip), vehicle: other): 96 % of control
T/C (dose: 25.0 mg/kg/injection, schedule: Q01DX009 (ip), vehicle: other): 103 % of control
T/C (dose: 50.0 mg/kg/injection, schedule: Q01DX009 (ip), vehicle: other): 111 % of control
T/C (dose: 100.0 mg/kg/injection, schedule: Q01DX009 (ip), vehicle: other): 101 % of control
T/C (dose: 200.0 mg/kg/injection, schedule: Q01DX009 (ip), vehicle: other): 99 % of control

Oc1cccc2c1[O][Sb][O]2
T/C (dose: 4.0 mg/kg/injection, schedule: Q01DX009 (ip), vehicle: Klucel (hydroxypropylcellulose) (HPC)): 120 % of control
T/C (dose: 4.0 mg/kg/injection, schedule: Q03HX016 (ip), vehicle: Klucel (hydroxypropylcellulose) (HPC)): 101 % of control
T/C (dose: 4.0 mg/kg/injection, schedule: Q03HX024 (ip), vehicle: Klucel (hydroxypropylcellulose) (HPC)): 103 % of control
T/C (dose: 8.0 mg/kg/injection, schedule: Q03HX024 (ip), vehicle: Klucel (hydroxypropylcellulose) (HPC)): 116 % of control
T/C (dose: 50.0 mg/kg/injection, schedule: Q01DX009 (ip), vehicle: saline): 166 % of control
T/C (dose: 64.0 mg/kg/injection, schedule: Q01DX001 (ip), vehicle: Klucel (hydroxypropylcellulose) (HPC)): 122 % of control
T/C (dose: 128.0 mg/kg/injection, schedule: Q01DX001 (ip), vehicle: Klucel (hydroxypropylcellulose) (HPC)): 115 % of control

CC(=O)NCCc1nc(-c2nc(C(=O)NCCCN)cs2)cs1
T/C (dose: 12.5 mg/kg/injection, schedule: Q01DX009 (ip), vehicle: water): 93 % of control
T/C (dose: 25.0 mg/kg/injection, schedule: Q01DX009 (ip), vehicle: water): 98 % of control
T/C (dose: 50.0 mg/kg/injection, schedule: Q01DX009 (ip), vehicle: water): 108 % of control
T/C (dose: 100.0 mg/kg/injection, schedule: Q01DX009 (ip), vehicle: water): 99 % of control
T/C (dose: 200.0 mg/kg/injection, schedule: Q01DX009 (ip), vehicle: water): 98 % of control

Cc1coc2c1C1OC(=O)C3(C/C=C\C(C)C2)OC13 (configuration not stated)
T/C (dose: 5625.0 micrograms/kg/injection, schedule: Q01DX005 (ip), vehicle: Klucel (hydroxypropylcellulose) (HPC)): 100 % of control
T/C (dose: 11250.0 micrograms/kg/injection, schedule: Q01DX005 (ip), vehicle: Klucel (hydroxypropylcellulose) (HPC)): 100 % of control
T/C (dose: 22500.0 micrograms/kg/injection, schedule: Q01DX005 (ip), vehicle: Klucel (hydroxypropylcellulose) (HPC)): 100 % of control

CC1=CC2OC3C(OC(=O)CCCCl)C(OC(=O)CCCCl)C(C)(C2(CO)CC1)C31CO1 (configuration not stated)
T/C (dose: 4.0 mg/kg/injection, schedule: Q01DX009 (ip), vehicle: saline with Tween-80): 152 % of control
T/C (dose: 8.0 mg/kg/injection, schedule: Q01DX009 (ip), vehicle: saline with Tween-80): 172 % of control

C=C1CCN(c2ccc(Br)cc2)C1=O
T/C (dose: 4.0 mg/kg/injection, schedule: Q01DX009 (ip), vehicle: saline + alcohol): 104 % of control
T/C (dose: 8.0 mg/kg/injection, schedule: Q01DX009 (ip), vehicle: saline + alcohol): 92 % of control
T/C (dose: 16.0 mg/kg/injection, schedule: Q01DX009 (ip), vehicle: saline + alcohol): 98 % of control
T/C (dose: 32.0 mg/kg/injection, schedule: Q01DX009 (ip), vehicle: saline + alcohol): 91 % of control
T/C (dose: 64.0 mg/kg/injection, schedule: Q01DX009 (ip), vehicle: saline + alcohol): 98 % of control

CNC(=S)N/N=C/c1ccc([N+](=O)[O-])s1
T/C [10]: 99 % of control
T/C [11]: 89 % of control
T/C [12]: 88 % of control

C=C(C)C1CC(=O)C2(C)C(C1)OC(=O)C2C(=O)OCC (configuration not stated)
T/C (dose: 100.0 mg/kg/injection, schedule: Q04DX002 (ip), vehicle: Klucel (hydroxypropylcellulose) (HPC)): 101 % of control
T/C (dose: 200.0 mg/kg/injection, schedule: Q04DX002 (ip), vehicle: Klucel (hydroxypropylcellulose) (HPC)): 103 % of control and 106 % of control
T/C (dose: 400.0 mg/kg/injection, schedule: Q04DX002 (ip), vehicle: Klucel (hydroxypropylcellulose) (HPC)): 103 % of control and 104 % of control

COC(C(=O)O)(c1ccccc1)C(F)(F)F (configuration not stated)
T/C (dose: 60.0 mg/kg/injection, schedule: Q01DX005 (ip), vehicle: saline): 100 % of control
T/C (dose: 120.0 mg/kg/injection, schedule: Q01DX005 (ip), vehicle: saline): 109 % of control

COC(=O)c1cn(NS(=O)(=O)c2ccc(OC)cc2)cc1C(=O)OC
T/C [6]: 96 % of control
T/C [7]: 101 % of control
T/C [8]: 104 % of control

N#Cc1nnc2cc(-c3ccccc3)nn2c1-c1cccs1
T/C (dose: 60.0 mg/kg/injection, schedule: Q01DX005 (ip), vehicle: Klucel (hydroxypropylcellulose) (HPC)): 86 % of control
T/C (dose: 120.0 mg/kg/injection, schedule: Q01DX005 (ip), vehicle: Klucel (hydroxypropylcellulose) (HPC)): 90 % of control
T/C (dose: 240.0 mg/kg/injection, schedule: Q01DX005 (ip), vehicle: Klucel (hydroxypropylcellulose) (HPC)): 87 % of control
